{
  "source": "patent US10053422B2",
  "about": "“Compounds for the treatment of mTOR pathway related diseases” (Pitney Pharmaceuticals Pty Limited, priority 2012, dated 2018)",
  "key": {"A2780 cells": {"tested_on": "A2780 cells", "experiment": "SRB cell proliferation assay, A2780", "assay_type": "cell-based, human", "protocol": "(§1) Cell proliferation was assessed using the sulforhodamine B (SRB) assay. Cells seeded in 96-well plate (2,000-3,000 cell/well) were treated with MPL (0, 1, 5, 10, 25, 50 and 100 μmol/L) for 72 h. Cells were then fixed, washed and stained with 100 μl of 0.4% (w/v) SRB dissolved in 1% acetic acid. Unbound dye was removed by five washes with 1% acetic acid before air drying. Bound SRB was solubilized with 100 μl of 10 mM Tris base (pH 10.5) and the absorbance read at 570 nm. Exactly the same procedure was used to assess MPL-SO2. Both agents were dissolved in ethanol and diluted with media to give the final concentrations required for cell culture assays."}, "IGROV-1 cells": {"tested_on": "IGROV-1 cells", "experiment": "SRB cell proliferation assay, IGROV-1", "assay_type": "cell-based", "details": "Homo sapiens", "protocol": "as §1"}, "[1]": {"tested_on": "PARP-1 in OVCAR-3 and A2780 cells", "experiment": "Western blot of PARP and cleaved PARP", "assay_type": "cell-based, human", "details": "MPL 0, 5, 10, 25 μM; 24, 48 or 72 h", "protocol": "OVCAR-3 and A2780 cells grown under cell culture conditions were incubated with various concentrations of MPL [0, 5, 10, 25 μM] for 24, 48 or 72 hours. Cell lysates were then prepared and analysed by western blotting for the determination of PARP and cleaved PARP.\nExposure of OVCAR-3 or A2780 cells to MPL (0, 5, 10, 25 μM) for 24, 48 or 72 h causes cleavage of PARP, which leads to cellular disassembly and serves as a marker of dying cells.\nProtein expression in cells was determined using western blot analysis. After treatment with the indicated concentrations of MPL, cell lysates were prepared and probed with antibodies for cdk2, cdk4, cyclin A, cyclin E, PARP-1 (1:1000 dilutions; Cell Signalling Technology), and p53 (1:200 dilutions; Santa Cruz Biotechnology).\nTo investigate whether the MPL-induced cell death involves cleavage of PARP, western blot analysis of lysates of MPL-treated cells for PARP-1 and cleaved PARP-1 was carried out. Cleavage of PARP-1 promotes apoptosis by preventing DNA-repair-induced survival."}, "[2]": {"tested_on": "Normal cells HOSE, CHO, HEK and HUVEC", "experiment": "Cell viability assay (Trypan blue), normal cells", "assay_type": "cell-based", "details": "MPL 0, 5, 10, 25 μmol/L, 72 h", "protocol": "Normal cells HOSE, CHO, HEK and HUVEC were cultured in the presence of MPL (0, 5, 10, 25, μmol/L) for 72 h. Effect of MPL on cell viability was assessed using the standard Trypan blue assay. Results are presented as mean±SEM compared to control (100%).\nFor viability experiments, cells seeded in 6 well plates were exposed to monepantel (MPL) at 0, 1, 10, 50 and 100 μM concentrations for 24, 48 or 72 h. Monepantel (gift by Novartis, Basel, Switzerland) was dissolved in 100% ethanol and then diluted with the cell culture media. At the end of treatment period, cells were washed with PBS, trypsinized and counted using Trypan blue and hemocytometer. All experimental points were set up in quadruplicate and each experiment was performed at least twice.\nIn brief, MPL and MPL-SO2 were tested in vitro against a wide range of cancer cell-lines with extensively different disease characteristics. For further detailed studies, human ovarian cancer cell lines OVCAR-3 and A2780 were chosen. […] Cell viability was assessed using Trypan blue assay (FIG. 9). Similarly, effect of MPL on the growth of normal epithelial, endothelial, embryonic and fetal cells were investigated (FIG. 10) while cell proliferation was assessed using the SRB assay (FIG. 11). Control (vehicle treated) cells were taken to present 100% proliferation and the MPL treated groups are expressed as percentage of control±SEM. […]"}, "[3]": {"tested_on": "HEK (Human Embryonic Kidney)", "experiment": "SRB cell proliferation assay, HEK", "assay_type": "cell-based", "protocol": "as §1"}, "[4]": {"tested_on": "NF-κB signal transduction pathway in LPS-stimulated RAW 264.7 cells", "experiment": "NF-κB signal transduction in LPS-stimulated macrophages", "assay_type": "cell-based", "description": "LPS-stimulated RAW 264.7 cells macrophages were used as an in vitro model system for inflammation."}, "1A9 cells": {"tested_on": "1A9 cells", "experiment": "SRB cell proliferation assay, 1A9", "assay_type": "cell-based", "details": "Homo sapiens", "protocol": "as §1"}, "U87 cells (glioblastoma)": {"tested_on": "U87 cells (glioblastoma)", "experiment": "SRB cell proliferation assay, U87", "assay_type": "cell-based", "details": "for IC50: Homo sapiens, U-87 MG", "protocol": "as §1"}, "mTOR and p70S6K": {"tested_on": "mTOR and p70S6K", "experiment": "Western blot of mTOR and p70S6K phosphorylation in OVCAR-3 cells", "assay_type": "cell-based, human", "details": "10 μM MPL for 1, 4 or 24 hours", "protocol": "Western blot analysis of cell lysates prepared from OVCAR-3 cells treated with 10 μM MPL for 1, 4 or 24 hours under cell culture conditions."}, "c-Myc and cyclin D1": {"tested_on": "c-Myc and cyclin D1", "experiment": "Western blot of c-Myc and cyclin D1 in OVCAR-3 cells", "assay_type": "cell-based, human", "details": "0, 5, 10, 15 and 25 μM MPL for 48 hours", "protocol": "In further experiments, after treatment with the indicated concentrations of MPL, cell lysates were prepared and probed with antibodies for c-Myc, cyclin D1, cyclin E, cdk2, cdk4, IGF-1R (Cell Signalling Technology), and (anta Cruz Biotechnology, Australia)."}, "[5]": {"tested_on": "DU-145 prostate cancer cells", "experiment": "SRB cell proliferation assay, DU-145", "assay_type": "cell-based", "details": "for IC50: Homo sapiens", "protocol": "as §1"}, "T47-D cells": {"tested_on": "T47-D cells", "experiment": "SRB cell proliferation assay, T47-D", "assay_type": "cell-based", "details": "Homo sapiens, T47D", "protocol": "as §1"}},
  "note": "Entries after “also recorded” stand apart in the source; their conditions may differ. Read-outs that look alike come from different tables or passages of the source.",
  "data": [
    {"compound": "C[C@](C#N)(COc1cc(C#N)ccc1C(F)(F)F)NC(=O)c1ccc(SC(F)(F)F)cc1", "note": "[MPL, N-[(1S)-1-Cyano-2-(5-cyano-2-trifluoromethyl-phenoxy)-1-methyl-ethyl]-4-trifluoromethylsulfanyl-benzamide]", "values": [
      {"measurement": "IC50", "setting": "A2780 cells; A2780, human epithelial ovarian cancer (Table 3), read-out: IC50 μM A2780", "value": "11.3 ± 0.9", "unit": "µM"},
      {"measurement": "IC50", "setting": "A2780 cells; Homo sapiens, A2780, ovarian cancer, 72 h, SRB assay (Table 1), read-out: IC50", "value": 10, "unit": "µM"},
      {"measurement": "IC50", "setting": "IGROV-1 cells; IGROV-1, ovarian cancer (Table 2), read-out: IC50 in suppressing proliferation", "value": "4.4 ± 0.27", "unit": "µM"},
      {"measurement": "IC50", "setting": "IGROV-1 cells; IGROV-1, ovarian cancer, 72 h, SRB assay (Table 1), read-out: IC50", "value": 6.1, "unit": "µM"},
      {"measurement": "cleavage of PARP", "setting": "[1]", "value": "PARP was cleaved; also recorded: highly induced cleavage of PARP"},
      {"measurement": "viability of normal cells", "setting": "[2]", "value": "cancer cell orientated"},
      {"measurement": "IC50", "setting": "[3]; HEK (Table 2), read-out: IC50 in suppressing proliferation", "value": "34.6 ± 0.86", "unit": "µM"},
      {"measurement": "IC50", "setting": "[3]; HEK, 72 h, SRB assay (Table 1), read-out: IC50", "value": 50.5, "unit": "µM"},
      {"measurement": "IKK phosphorylation", "setting": "[4]", "value": "inhibitory effect"},
      {"measurement": "IL-6 expression", "setting": "[4]", "value": "down regulation of IL-6 expression"},
      {"measurement": "IκB-α phosphorylation", "setting": "[4]", "value": "inhibitory effect"},
      {"measurement": "NF-κB p65 phosphorylation", "setting": "[4]", "value": "inhibitory effect"},
      {"measurement": "NO expression", "setting": "[4]", "value": "abrogates NO expression"},
      {"measurement": "TGF-β expression", "setting": "[4]", "value": "down regulation of TGF-β expression"},
      {"measurement": "NF-κB activation", "setting": "[4]; immunocytochemistry and Western blot", "value": "decreased NF-κB activation"},
      {"measurement": "IC50", "setting": "1A9 cells; 1A9, ovarian cancer (Table 2), read-out: IC50 in suppressing proliferation", "value": "2.5 ± 0.45", "unit": "µM"},
      {"measurement": "IC50", "setting": "1A9 cells; 1A9, ovarian cancer, 72 h, SRB assay (Table 1), read-out: IC50", "value": 1.8, "unit": "µM"},
      {"measurement": "IC50", "setting": "U87 cells (glioblastoma); U87, glioblastoma, 72 h, SRB assay (Table 1), read-out: IC50", "value": 26.2, "unit": "µM"},
      {"measurement": "IC50", "setting": "U87 cells (glioblastoma); U87, glioma (Table 2), read-out: IC50 in suppressing proliferation", "value": 18, "unit": "µM"},
      {"measurement": "replication of U87 cells", "setting": "U87 cells (glioblastoma); highly resistant to chemotherapy", "value": "profoundly suppressed"},
      {"measurement": "phosphorylation [activation] of mTOR and p70S6K", "setting": "mTOR and p70S6K", "value": "inhibition of phosphorylation"},
      {"measurement": "c-Myc and cyclin D1 expression", "setting": "c-Myc and cyclin D1", "value": "down-regulation of c-Myc and cyclin D1 expression"},
      {"measurement": "IC50", "setting": "[5]; DU-145, prostate cancer (Table 2), read-out: IC50 in suppressing proliferation", "value": 23, "unit": "µM"},
      {"measurement": "IC50", "setting": "[5]; DU-145, prostate cancer, 72 h, SRB assay (Table 1), read-out: IC50", "value": 23.5, "unit": "µM"},
      {"measurement": "effect on DU 145 cells", "setting": "[5]; chemo-resistant, androgen insensitive DU 145", "value": "very effective"},
      {"measurement": "IC50", "setting": "T47-D cells; breast cancer (Table 2), read-out: IC50 in suppressing proliferation", "value": "5.3 ± 0.003", "unit": "µM"},
      {"measurement": "IC50", "setting": "T47-D cells; breast cancer, 72 h, SRB assay (Table 1), read-out: IC50", "value": 5.7, "unit": "µM"}
    ]}
  ]
}
